The target in assay [1] is T1, full-length wild type (WT) human BTK (Homo sapiens, UniProt Q06187).
T1 construct: against full-length wild type (WT) and mutant human BTK enzymes
Briefly: BTK activity assay, [33P]-ATP incorporation into poly-EY. The class given is biochemical. As to the method: The activity of the compound of Formula I against full-length wild type (WT) and mutant human BTK enzymes is determined by monitoring the incorporation [^33P]-PO4 from [γ-^33P]-ATP into poly-glutamic acid-tyrosine (poly-EY) peptide substrate. The reaction mixtures each contained polyhistidine-tagged BTK enzyme, poly-EY and BTK inhibitor at the appropriate concentrations. The reaction mixtures are incubated for 20 minutes at room temperature after which [[γ-^33P]-ATP (radiochemical concentration 10 μCi/μL) at 10 μM or the ATP Km concentration for each enzyme is added. After 2 hours of incubation at room temperature, the radiolabeled peptide substrate is captured, and incorporated radioactivity is quantified.
(§1) Each assay is performed at an ATP concentration close to the Km for each enzyme. […] After co-incubation with a serial dilution of the compound of Formula I, the quantity of ^33P incorporated into a peptide substrate is measured and the data analyzed using standard curve fitting methods.

The target of assay [2] is 371 kinases. Briefly: Kinase selectivity assay (Reaction Biology Wild-Type Kinase Profiler). It is filed as biochemical. As to conditions: 1.0 μM compound; ATP close to Km for each enzyme. How it is done: as §1

Where two headings read alike, the source gives them in different places.

T1 sequence (Q06187 whole entry): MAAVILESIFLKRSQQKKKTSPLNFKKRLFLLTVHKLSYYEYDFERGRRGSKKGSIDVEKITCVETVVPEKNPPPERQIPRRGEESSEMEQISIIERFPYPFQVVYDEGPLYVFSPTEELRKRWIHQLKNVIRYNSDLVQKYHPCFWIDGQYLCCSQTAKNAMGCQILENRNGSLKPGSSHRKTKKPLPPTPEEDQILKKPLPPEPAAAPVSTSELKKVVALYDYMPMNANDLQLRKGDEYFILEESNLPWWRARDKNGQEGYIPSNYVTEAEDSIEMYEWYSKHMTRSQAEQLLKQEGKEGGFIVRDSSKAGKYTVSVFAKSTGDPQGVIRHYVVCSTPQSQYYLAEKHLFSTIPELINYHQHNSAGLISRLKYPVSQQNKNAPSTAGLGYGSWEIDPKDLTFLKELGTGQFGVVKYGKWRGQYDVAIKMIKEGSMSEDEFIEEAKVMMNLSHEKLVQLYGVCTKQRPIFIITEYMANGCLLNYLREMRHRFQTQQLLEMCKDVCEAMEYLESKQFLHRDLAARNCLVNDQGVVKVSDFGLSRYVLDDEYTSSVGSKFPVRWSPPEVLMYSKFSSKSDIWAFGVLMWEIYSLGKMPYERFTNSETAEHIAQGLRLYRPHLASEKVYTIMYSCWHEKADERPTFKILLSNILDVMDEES

In the case of `COc1ccc(F)cc1C(=O)NCc1ccc(-c2nn([C@@H](C)C(F)(F)F)c(N)c2C(N)=O)cc1` [compound of Formula I, (S)-5-amino-3-(4-((5-fluoro-2-methoxybenzamido)methyl)phenyl)-1-(1,1,1-trifluoropropan-2-yl)-1H-pyrazole-4-carboxamide], the IC50 in assay [1] (10 μM ATP, read-out: IC50) came to 0.95 nM; in assay [1] (ATP at Km concentration, read-out: IC50 value), 3.15 nM. For the same compound, the “kinases other than BTK with Percent of Control (POC) values less than 50” value in assay [2] is reported as “only eight of 371 kinases other than BTK”.

(Values after US12268666B2, “Spray-dried dispersions, formulations, and polymorphs of (S)-5-amino-3-(4-((5-fluoro-2-methoxybenzamido)methyl)phenyl)-1-(1,1,1-trifluoropropan-2-yl)-1H-pyrazole-4-carboxamide” (Loxo Oncology, Inc., priority 2018, dated 2025).)
